Results reported in patent US6849596B1, “Regulatory/unfolding peptides of ezrin” (priority 1999, dated 2005).
“Also recorded” adds a separate entry of the source. Where no end group is shown, it is not given here.

Columns and labels:
[1] = tested on: transplanted sarcoma of the uterus SM-322; assay: Transplanted mouse sarcoma SM-322 model; format: in vivo, CBA mice; conditions: for Percent decrease in tumour volume relative to control: SM-322
Description: Anticancer Activity of Hepreceptor Peptides on the Growth of Transplanted Sarcoma of the Uterus SM-322 and on Cancer of the Uterine Cervix CUS-5 Performed in CBA Mice Using Rupe312 and Rupe414 as Examples Transplanted mouse sarcoma SM-322 model (endothelial tumour). Primary tumours of the uterus were induced in female mice using 1.2 dimethylhydrazine. A few primary tumours were transplanted into syngeneic mice. The first visible nodules started to appear at the point of transplation after 4 days. The life expectancy of the mice with transplanted tumours was 22-24 days. […] The tumours were introduced as a 0.5 ml of tumour suspension (1 g tumour per 10 ml of Igla medium) and ten mice used in each treatment group. […] The average percent decrease of tumour volume relative to the control group was recorded at three time points. The longevity of the mice in the treatment groups and control groups was compared and the histology of the tumours between control and treatment groups was compared.

[2] = tested on: transplanted cervical cancer CUC-5; assay: Transplanted mouse cervical cancer model CUC-5; format: in vivo, CBA mice; conditions: for Percent decrease in tumour volume relative to control / Days of life expectancy: CUC-5; for Days of life expectancy: control 47-76
Description: Anticancer Activity of Hepreceptor Peptides on the Growth of Transplanted Sarcoma of the Uterus SM-322 and on Cancer of the Uterine Cervix CUS-5 Performed in CBA Mice Using Rupe312 and Rupe414 as Examples
Transplanted mouse cervical cancer model CUC-5 (epithelial tumour)
Primary tumours were induced in female mice using methylcholantrene. A few primary turnouts were then auto-transplanted into the uterine cervix. The life expectancy of mice with transplanted tumours was 43 days.
CBA female mice weighed 21.4=/−1.2 g. and were 2-3 months old. The tumours were introduced as a 0.5 ml of tumour suspension (1 g tumour per 10 ml of Igla medium) and ten mice used in each treatment group.
Lyophylised peptide were dissolved in sterile physiological saline immediately before use in three concentrations. 0.5 ml of solution was injected twice weekly into the peritoneum of the mice for the duration of the experiment. Three different concentrations of peptide were used leading to three final doses per injection per mouse of 10, 1.0 and 0.1 micrograms.
The average percent decrease of tumour volume relative to the control group was recorded at three time points. The longevity of the mice in the treatment groups and control groups was compared and the histology of the tumours between control and treatment groups was compared.

[3] = tested on: activated macrophages; assay: Induction of activated macrophages in mice (peritoneal exsudate); format: in vivo
Method: Groups of three mice (CDAxC57B1)F1 weighing 22-24 g were injected abdominally with each peptide solution of 1.0 microgram of peptide dissolved in 0.5 ml of physiological saline. After 24 hours the animals were killed using neck vertebrae dislocation and 5 ml of Hanks solution was injected into the abdomen. The abdomen was massaged for 30 seconds and then the peritoneal liquid was collected. The collected liquid was filtered using a nylon filter into siliconised tubes containing 1.5 mg/ml EDTA. The number of nucleus containing cells in […] of filtrate were then assessed under microscopic examination using a Nihon hemocytometer. The cells were pelleted by centrifugation for 5 minutes at 800 g, the pellet was resuspended in fetal calf serum, the cell suspension was dropped on to a glass microscope slide and dried then fixed in methanol and stained with Romanovski's colouring agent. Morphological analysis of the cells of the peritoneal exsudate were performed using an Opton optical microscope at 1600 magnifications. The number of lymphocytes, resting macrophages, activated macrophages, granulocytes and other cell types were assessed.

[4] = tested on: human Peripheral Blood Mononuclear Cells; assay: In vitro activation of human PBMC, tritiated thymidine incorporation; format: cell-based; conditions: for incorporation of 3H thymidine: three days, Control 370
Method: Peripheral Blood Mononuclear Cells (PBMC) were separated from the peripheral blood of a […] donor using the standard method of fractionation in a ficoll gradient. The PBMC were suspended in culture medium containing RPMI1640 medium plus 10% fetal calf serum, 1 mM L-glutamin and antibiotics (BM). The cell suspension was placed in wells of a 96 hole microwell plate for cell cultivation, (100 microliters of suspension containing 100,000 cells per well). […] The negative control well contained BM but no peptide. The plate was incubated at 37° C. for three days then radioactive ^3H thymidine was added to a final concentration of 1 microcurie per ml. The incorporation of ^3H thymidine into the DNA of the cells was measured using a betacounter using standard procedures. The experiment was repeated twice and the results expressed as an average of the two experiments in radioactive counts per minute.

[5] = tested on: HLA Class I on human White Blood Cells; assay: Expression of MHC (HLA) Class I on human White Blood Cells; format: cell-based; conditions: 0.003 micrograms per ml
Description: A cell specific effect of this activation was an increase in the population of monocytes expressing MHC Class I and a decrease in the population of CD8 lymphocytes expressing MHC Class I.

[6] = tested on: transplanted sarcoma of the uterus SM-322; assay: Transplanted mouse sarcoma SM-322 model; format: in vivo, CBA mice; conditions: control 12-16
[7] = Animal toxicology and pre-clinical testing of HEP1; conditions: rat and rabbit
[8] = 0.1 Microg/mouse IP twice weekly, Day 8
[9] = 0.1 Microg/mouse IP twice weekly, Day 12
[10] = 1 Microg/mouse IP twice weekly, Day 8
[11] = 1 Microg/mouse IP twice weekly, Day 12
[12] = 10 Microg/mouse IP twice weekly, Day 8
[13] = 10 Microg/mouse IP twice weekly, Day 12
[14] = 0.1 Microg/mouse IP twice weekly
[15] = 10 Microg/mouse IP twice weekly

## KRRETVEREKE (Hepreceptor peptide) [Rupe414]
[1]; [8]
  Percent decrease in tumour volume relative to control: 68%
[1]; [9]
  Percent decrease in tumour volume relative to control: 39%
[1]; 0.1 Microg/mouse IP twice weekly, Day 15
  Percent decrease in tumour volume relative to control: 22%
[1]; [10]
  Percent decrease in tumour volume relative to control: 68%
[1]; [11]
  Percent decrease in tumour volume relative to control: 28%
[1]; 1 Microg/mouse IP twice weekly, Day 15
  Percent decrease in tumour volume relative to control: 43%
[1]; [12]
  Percent decrease in tumour volume relative to control: 65%
[1]; [13]
  Percent decrease in tumour volume relative to control: 43%
[1]; 10 Microg/mouse IP twice weekly, Day 15
  Percent decrease in tumour volume relative to control: 43%
[1]; both models (SM-322 and CUC-5)
  histology of the tumours: non bleeding ulcerous destruction of the centre of tumours
[2]; [8]
  Percent decrease in tumour volume relative to control: 50%
[2]; [9]
  Percent decrease in tumour volume relative to control: 18%
[2]; 0.1 Microg/mouse IP twice weekly, Day 19
  Percent decrease in tumour volume relative to control: 57%
[2]; [14]
  Days of life expectancy: 47 to 76 days
[2]; [10]
  Percent decrease in tumour volume relative to control: 50%
[2]; [11]
  Percent decrease in tumour volume relative to control: 16%
[2]; 1 Microg/mouse IP twice weekly, Day 19
  Percent decrease in tumour volume relative to control: 43%
[2]; 1 Microg/mouse IP twice weekly
  Days of life expectancy: 36 to 76 days
[2]; [12]
  Percent decrease in tumour volume relative to control: 50%
[2]; [13]
  Percent decrease in tumour volume relative to control: 16%
[2]; 10 Microg/mouse IP twice weekly, Day 19
  Percent decrease in tumour volume relative to control: 48%
[2]; [15]
  Days of life expectancy: 36 to 76 days
[2]; slower growing transplanted cervical cancer
  change in life expectancy: no significant increase (or decrease) in life expectancy was detected
[3]; 1.0 microgram peptide/mouse
  activity in increasing activated macrophages relative to HEP1: significantly more active than HEP1
[3]; 1.0 microgram peptide/mouse injected abdominally, after 24 hours, saline 1.9
  Activated macrophages as a percent of total number of cells: 8.5%
[4]; PBMC activation, thymidine incorporation
  activity relative to HEP1: significantly more active than HEP1; also recorded: ten fold higher activity than HEP1
[4]; PBMC proliferation
  concentration of peak activity: around 3 nanograms/ml
[4]; Peptide 0.0001 micro g/ml
  incorporation of 3H thymidine: 493 radioactive counts per minute
[4]; Peptide 0.0003 micro g/ml
  incorporation of 3H thymidine: 580 radioactive counts per minute
[4]; Peptide 0.001 micro g/ml
  incorporation of 3H thymidine: 684 radioactive counts per minute
[4]; Peptide 0.003 micro g/ml
  incorporation of 3H thymidine: 2087 radioactive counts per minute
[4]; Peptide 0.01 micro g/ml
  incorporation of 3H thymidine: 650 radioactive counts per minute
[4]; Peptide 0.03 micro g/ml
  incorporation of 3H thymidine: 596 radioactive counts per minute
[4]; Peptide 0.1 micro g/ml
  incorporation of 3H thymidine: 485 radioactive counts per minute
[4]; Peptide 0.3 micro g/ml
  incorporation of 3H thymidine: 492 radioactive counts per minute
[4]; Peptide 1 micro g/ml
  incorporation of 3H thymidine: 449 radioactive counts per minute
[4]; Peptide 3 micro g/ml
  incorporation of 3H thymidine: 437 radioactive counts per minute
[4]; Peptide 10 micro g/ml
  incorporation of 3H thymidine: 394 radioactive counts per minute
[5]; 24 hours
  relative activity in lowering intensity of HLA expression on WBC: more active than HEP1
[5]; B and NK cells, 24 hours
  Density of cell surface expression of HLA Class I, rebased to 100 for control: 77
  Percentage of cell population expressing HLA Class I, rebased to 100 for control: 101
[5]; CD4 lymphocytes, 24 hours
  Density of cell surface expression of HLA Class I, rebased to 100 for control: 77
  Percentage of cell population expressing HLA Class I, rebased to 100 for control: 105
[5]; CD8 lymphocytes, 24 hours
  Density of cell surface expression of HLA Class I, rebased to 100 for control: 76
  Percentage of cell population expressing HLA Class I, rebased to 100 for control: 89
[5]; Granulocytes, 24 hours
  Density of cell surface expression of HLA Class I, rebased to 100 for control: 85
  Percentage of cell population expressing HLA Class I, rebased to 100 for control: 98
[5]; Monocytes/Macrophages, 24 hours
  Percentage of cell population expressing HLA Class I, rebased to 100 for control: 109
[5]; Monocytes/Macrophages, 24 hours at 37° C.
  Density of cell surface expression of HLA Class I, rebased to 100 for control: 83
[6]; [14]
  Days of life expectancy: 12 to 19 days
[6]; 1 Microg/mouse IP twice weekly
  Days of life expectancy: 12 to 20 days
[6]; [15]
  Days of life expectancy: 13 to 20 days

## TEKKRRETVEREKE [HEP1, TEKKRRETVEREKE]
[7]
  Chronic toxicity: negative
  Effect of 1000× therapeutic dose: negative
  Embryotoxicity: negative
  Influence on CNS and HVS: negative
  Local Irritation: negative
  Mutagenic effects: negative
  Sub-acute toxicity: negative
[7]; pharmaceutical grade HEP1
  Preliminary evaluation of toxicity: negative
